Measurements as given in patent publication US11261222B2, “Transdermal peptide with nuclear localization ability and use thereof” (SOOCHOW UNIVERSITY, priority 2017, dated 2022).
Where a SMILES comes first, the peptide text is derived from it. The star is where a group is joined. FITC = O=C1OC2(c3ccc(O)cc3Oc3cc(O)ccc32)c2ccc(NC(=S)*)cc21

Assays:
[1] = system: skin of SD rats; experiment: transdermal penetration effect on back skin of SD rats, fluorescence microscopy of skin sections; format: in vivo; settings: 50 μL of 500 μmol/L FITC-labeled peptide solution applied on back skin, three hours
Experimental: The experiments were performed using 8-week old SD rats (body weight 250 g). The back of SD rats was shaved, and the FITC-labeled peptide and control peptide prepared in Example 1 were each dissolved in a phosphate buffer (PBS, pH=7.4) to prepare a solution having a concentration of 500 μmol/L. The SD rats were divided into three groups, including: 1) a control group, in which no polypeptide solution was applied on the back; 2) a control group, in which the peptide as shown in SEQ ID NO: 3 was applied on the dorsal epidermis of rats; and 3) a treatment group, in which the peptide as shown in SEQ ID NO: 1 was applied on the back skin of rats. The rats in Groups 2) and 3) were each applied with 50 μL of the polypeptide solution. After three hours, the polypeptide in the applied area was washed off; the SD rats were sacrificed, and the skin applied with the polypeptide was taken, frozen, sectioned, and then observed under a fluorescence microscope.

[2] = isoelectric point of the transdermal peptide; format: physicochemical

Row | Compound | fluorescence in the dermal tissue of the skin [1] | isoelectric point [2]
1 | CC[C@H](C)[C@H](NC(=O)[C@H](CC(=O)O)NC(=O)[C@H](CCCCN)NC(=O)[C@H](CO)NC(=O)[C@H](Cc1c[nH]c2ccccc12)NC(=O)[C@H](C)NC(=O)[C@H](CC(C)C)NC(=O)[C@H](Cc1c[nH]cn1)NC(=O)[C@H](CC(=O)O)NC(=O)[C@H](CCC(=O)O)NC(=O)[C@@H](NC(=O)[C@H](CO)NC(=O)[C@H](CC(=O)O)NC(=O)[C@@H](NC(=O)[C@H](CO)NC(=O)[C@H](CC(C)C)NC(=O)[C@H](C)NC(=O)[C@@H](NC(=S)Nc1ccc2c(c1)C(=O)OC21c2ccc(O)cc2Oc2cc(O)ccc21)[C@@H](C)CC)[C@@H](C)CC)C(C)C)C(=O)N[C@@H](CC(N)=O)C(=O)N[C@@H](C)C(=O)O [irrelevant control polypeptide, reference compound] ({FITC}-IALSIDSVEDHLAWSKDINA-OH) | no green fluorescence in the dermal tissue | –
2 | CC(C)C[C@H](NC(=O)[C@H](Cc1ccc(O)cc1)NC(=O)[C@H](CCCCN)NC(=O)[C@H](CCCCN)NC(=O)CNC(=O)[C@H](CO)NC(=O)[C@@H]1CCCN1C(=O)[C@H](CC(C)C)NC(=O)[C@H](CCC(=O)O)NC(=O)[C@H](CCCCN)NC(=O)[C@@H](NC(=O)[C@H](Cc1ccccc1)NC(=O)[C@@H](NC(=O)CNC(=O)[C@H](CCCCN)NC(=O)[C@@H]1CCCN1C(=O)[C@H](Cc1ccccc1)NC(=O)[C@H](CC(C)C)NC(=O)[C@H](CCCCN)NC(=O)[C@H](CCCCN)NC(=S)Nc1ccc2c(c1)C(=O)OC21c2ccc(O)cc2Oc2cc(O)ccc21)C(C)C)[C@@H](C)O)C(=O)N[C@@H](CCCNC(=N)N)C(=O)O [peptide of the present invention] ({FITC}-KKLFPKGVFTKELPSGKKYLR-OH) | clearly observed in the skin appendages of the dermis | –
3 | transdermal peptide with a nuclear localization ability: transdermal peptide with amino acid sequence as shown in SEQ ID NO: 1, enters eukaryotic cells autonomously (KKLFPKGVFTKELPSGKKYLR; Transdermal peptide) | – | 10.92
